This experiment deals with Serine/threonine-protein phosphatase 5 (Homo sapiens) (UniProt P53041). Put plainly: Inhibition of His-tagged PP5 (unknown origin) expressed in Escherichia coli BL21 cells using para-nitrophenyl phosphate as substrate incubated for 5 to 10 mins by microplate reader based spectrophotometric analysis.

Where only a bound is given, the exact number is not on record here.

Sequence of Serine/threonine-protein phosphatase 5 (Homo sapiens) (P53041 whole entry, looked up): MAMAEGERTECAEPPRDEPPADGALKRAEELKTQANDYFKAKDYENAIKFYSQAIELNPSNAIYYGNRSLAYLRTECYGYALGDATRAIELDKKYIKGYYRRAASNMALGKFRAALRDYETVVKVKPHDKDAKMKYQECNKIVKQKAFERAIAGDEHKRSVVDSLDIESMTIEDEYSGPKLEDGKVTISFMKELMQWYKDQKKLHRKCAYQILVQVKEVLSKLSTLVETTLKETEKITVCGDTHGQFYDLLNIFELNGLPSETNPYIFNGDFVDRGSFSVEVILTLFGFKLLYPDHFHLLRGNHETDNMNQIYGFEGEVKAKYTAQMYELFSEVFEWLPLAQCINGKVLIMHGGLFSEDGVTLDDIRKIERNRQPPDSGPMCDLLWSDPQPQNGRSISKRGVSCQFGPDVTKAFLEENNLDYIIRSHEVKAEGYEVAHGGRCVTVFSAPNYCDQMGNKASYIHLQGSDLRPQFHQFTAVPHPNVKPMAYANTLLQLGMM

For `O=C(Nc1nc2ccccc2s1)C(c1ccccc1)S(=O)(=O)O` (centres undefined), the IC50 (as a rule, the concentration at which inhibition is half-maximal) was greater than 200 µM.

`O=C(Nc1cnc2ccccc2c1)C(c1ccccc1)S(=O)(=O)O` (centres undefined): the IC50 is greater than 200 µM.

On to `O=C(Nc1ccc(N2CCOCC2)cc1)C(c1ccccc1)S(=O)(=O)O` (centres undefined), for which the IC50 is greater than 200 µM.

With `O=C(Nc1ccc2nc(C(F)(F)F)[nH]c2c1)C(c1ccccc1)S(=O)(=O)O` (centres undefined), the IC50 was greater than 200 µM.
